From patent US20170217964A1, “AMINOTETRAHYDROPYRAN DERIVATIVE USED AS DIPEPTIDYL PEPTIDASEIV INHIBITOR” (FUJIAN BORO MEDICAL CO., LTD., priority 2014, published 2017)

How the values were obtained:
[1] = molecular target: T1, DPP-4 enzyme (Homo sapiens, UniProt P27487); experiment: Test of the inhibition activity to the DPP-4 enzyme (fluorescence, substrate Gly-Pro-7-amido-4-methylcoumarin); assay type: biochemical; conditions: in vitro; compounds of the examples; read-out: DPP-4 inhibition ID50
T1 construct: purchased SIGMA
Text: Test of the inhibition activity of the compound of the present invention to the DPP-4 enzyme: […]

[2] = stability test of human liver microsomes; assay type: in vitro ADME

T1 sequence (P27487 whole entry, species assumed): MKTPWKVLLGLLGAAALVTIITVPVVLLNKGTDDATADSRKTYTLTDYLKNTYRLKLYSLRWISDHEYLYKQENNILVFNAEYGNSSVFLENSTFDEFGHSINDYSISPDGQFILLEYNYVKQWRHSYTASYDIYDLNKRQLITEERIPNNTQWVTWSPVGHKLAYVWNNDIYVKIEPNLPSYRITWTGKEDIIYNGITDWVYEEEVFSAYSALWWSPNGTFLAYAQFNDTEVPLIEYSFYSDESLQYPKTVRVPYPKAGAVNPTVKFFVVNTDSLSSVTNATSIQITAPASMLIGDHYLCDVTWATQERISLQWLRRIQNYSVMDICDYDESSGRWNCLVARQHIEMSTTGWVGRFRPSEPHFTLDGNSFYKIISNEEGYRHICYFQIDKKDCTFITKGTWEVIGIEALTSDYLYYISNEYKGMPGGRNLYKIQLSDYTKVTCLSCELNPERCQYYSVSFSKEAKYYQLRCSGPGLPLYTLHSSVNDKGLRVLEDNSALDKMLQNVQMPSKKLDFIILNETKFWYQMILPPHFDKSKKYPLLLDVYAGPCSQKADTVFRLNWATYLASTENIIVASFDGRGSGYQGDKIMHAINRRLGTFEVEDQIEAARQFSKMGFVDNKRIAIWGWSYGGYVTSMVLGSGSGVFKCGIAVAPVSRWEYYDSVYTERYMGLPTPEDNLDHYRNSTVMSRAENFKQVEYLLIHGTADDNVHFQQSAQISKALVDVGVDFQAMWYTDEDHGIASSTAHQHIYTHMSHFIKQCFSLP

Row | Structure (SMILES) | IC50 [1] [nM] | metabolism stability compared with MK-3102 [2]
1 | N[C@H]1C[C@@H](N2Cc3cn(S(=O)(=O)N4CCN(C5CCCC5)CC4)nc3C2)CO[C@@H]1c1cc(F)ccc1F [Compound 5, (2R, 3S, 5R)-2-(2,5-difluorophenyl)-5-[2-(4-cyclopentylpiperazine-1-yl-sulfonyl)-2,6-dihydropyrrolo[3,4,-c]pyrazol-5(4H)-yl]tetrahydro-2H-pyran-3-amine] | 0.2 | –
2 | CC1CCN(S(=O)(=O)n2cc3c(n2)CN([C@H]2CO[C@H](c4cc(F)ccc4F)[C@@H](N)C2)C3)CC1 [Compound 14] | 0.4 | –
3 | CN1CCN(S(=O)(=O)n2cc3c(n2)CN([C@H]2CO[C@H](c4cc(F)ccc4F)[C@@H](N)C2)C3)CC1 [Compound 4, (2R, 3S, 5R)-2-(2,5-difluorophenyl)-5-[2-(N-methylpiperazinesulfonyl)-2,6-dihydropyrrolo[3,4,-c]pyrazol-5(4H)-yl]tetrahydro-2H-pyran-3-amine] | 0.6 | better metabolism stability
4 | N[C@H]1C[C@@H](N2Cc3cn(S(=O)(=O)N4CCCC4)nc3C2)CO[C@@H]1c1cc(F)ccc1F [Compound 3] | 0.3 | –

The remaining compounds from weak to strong by IC50 [1], led by results:

Row | IC50 [1] [nM] | metabolism stability compared with MK-3102 [2] | Structure (SMILES)
5 | 0.8 | – | N[C@H]1C[C@@H](N2Cc3cn(S(=O)(=O)N4CCCCC4)nc3C2)CO[C@@H]1c1cc(F)ccc1F [Compound 2, (2R, 3S, 5R)-2-(2,5-difluorophenyl)-5-[2-(piperidinesulfonyl)-2,6-dihydropyrrolo[3,4,-c]pyrazol-5(4H)-yl]tetrahydro-2H-pyran-3-amine]
6 | 0.7 | – | N[C@H]1C[C@@H](N2Cc3cn(S(=O)(=O)N4CC5CCCCC5C4)nc3C2)CO[C@@H]1c1cc(F)ccc1F (stereo partly drawn) [Compound 15, (2R, 3S, 5R)-2-(2,5-difluorophenyl)-5-[2-(perhydroindole-1 sulfonyl)-2,6-dihydropyrrolo[3,4,-c]pyrazol-5(4H)-yl]tetrahydro-2H-pyran-3-amine]
7 | 0.5 | better metabolism stability | N[C@H]1C[C@@H](N2Cc3cn(S(=O)(=O)N4CCOCC4)nc3C2)CO[C@@H]1c1cc(F)ccc1F [Compound 1, (2R, 3S, 5R)-2-(2,5-difluorophenyl)-5-[2-(morpholinesulfonyl)-2,6-dihydropyrrolo[3,4,-c]pyrazol-5(4H)-yl]tetrahydro-2H-pyran-3-amine]
8 | 0.5 | – | N[C@H]1C[C@@H](N2Cc3cn(S(=O)(=O)N4CCC4)nc3C2)CO[C@@H]1c1cc(F)ccc1F [Compound 13, (2R, 3S, 5R)-2-(2,5-difluorophenyl)-5-[2-(azetidine-1-sulfonyl)-2,6-dihydropyrrolo[3,4,-c]pyrazol-5(4H)-yl]tetrahydro-2H-pyran-3-amine]
